The record followed here is patent US12180207B2 (ARRAY BIOPHARMA INC., priority 2018, dated 2024).

Assay [1] deals with HEK-293 cells transfected with dox-inducible human wild type FGFR2 (Homo sapiens (Human), UniProt P21802). The experiment in a line: FGFR2 pFGFR cell assay (ELISA). Format: cell-based. The following applies: HEK-293 dox-inducible FGFR2, 1 hour compound, 30 ng/ml FGF-acidic. As to the method:
FGFR2 pFGFR Cell Assay: • HEK-293 cells transfected with dox-inducible human wild type FGFR2 (SEQ ID NO: 3) were plated in a collagen or poly-D-lysine coated 96 well flat bottom plates at 4×10^5 cells/well in complete DMEM medium containing 10% FBS and 1 μg/ml doxycycline and allowed to attach for 24 h at 37° C., 5% CO2. Cells were treated with compound using 1:3 serial dilutions with a maximum final concentration of 5 μM. Compound was incubated on cells for 1 hour at 37° C., 5% CO2. Cells were then stimulated with a final concentration of 30 ng/ml human FGF-acidic (R&D Systems Cat number 232-FA/CF) for 5 minutes at 37° C., 5% CO2. Medium was removed and cells were lysed with lysis buffer containing phosphatase and protease inhibitors. Phospho FGFR2 was measured by ELISA (R&D Systems cat. no. DYC684). The ELISA captures total FGFR2 and detects total phospho tyrosine. Optical density was measured for each well using a Versamax reader at a wavelength of 450 nm. 100 POC was determined using no test compounds and 0 POC was determined using a control compound. The POC values were fit to a 4-parameter logistic curve as a function of the concentration of the compound, and the IC50 value is the point where the curve crosses 50 POC.
For orientation: ELISA stands for enzyme-linked immunosorbent assay.

The next assay concerns the target dephosphorylated FGFR2 (Homo sapiens (Human), UniProt P21802). Description: FGFR enzyme binding assay (HTRF tracer displacement), FGFR2. The following applies: 5 nM dephosphorylated FGFR2, average of multiple determinations if made. On the procedure: The potency of compounds inhibiting human isoforms of FGFR kinase was determined using Life Technologies' Homogeneous Time Resolved Fluorescence (HTRF)-based binding assay technology. […] After a 60 minute incubation at 22° C., the extent of tracer displacement was determined using a PerkinElmer EnVision multimode plate reader via HTRF dual wavelength detection, and the percent of control (POC) was calculated using a ratiometric emission factor. One hundred POC was determined using no test compound, and 0 POC was determined in the presence of 1 μM of an appropriate control inhibitor.

Sequence of dephosphorylated FGFR2 (P21802 22-821): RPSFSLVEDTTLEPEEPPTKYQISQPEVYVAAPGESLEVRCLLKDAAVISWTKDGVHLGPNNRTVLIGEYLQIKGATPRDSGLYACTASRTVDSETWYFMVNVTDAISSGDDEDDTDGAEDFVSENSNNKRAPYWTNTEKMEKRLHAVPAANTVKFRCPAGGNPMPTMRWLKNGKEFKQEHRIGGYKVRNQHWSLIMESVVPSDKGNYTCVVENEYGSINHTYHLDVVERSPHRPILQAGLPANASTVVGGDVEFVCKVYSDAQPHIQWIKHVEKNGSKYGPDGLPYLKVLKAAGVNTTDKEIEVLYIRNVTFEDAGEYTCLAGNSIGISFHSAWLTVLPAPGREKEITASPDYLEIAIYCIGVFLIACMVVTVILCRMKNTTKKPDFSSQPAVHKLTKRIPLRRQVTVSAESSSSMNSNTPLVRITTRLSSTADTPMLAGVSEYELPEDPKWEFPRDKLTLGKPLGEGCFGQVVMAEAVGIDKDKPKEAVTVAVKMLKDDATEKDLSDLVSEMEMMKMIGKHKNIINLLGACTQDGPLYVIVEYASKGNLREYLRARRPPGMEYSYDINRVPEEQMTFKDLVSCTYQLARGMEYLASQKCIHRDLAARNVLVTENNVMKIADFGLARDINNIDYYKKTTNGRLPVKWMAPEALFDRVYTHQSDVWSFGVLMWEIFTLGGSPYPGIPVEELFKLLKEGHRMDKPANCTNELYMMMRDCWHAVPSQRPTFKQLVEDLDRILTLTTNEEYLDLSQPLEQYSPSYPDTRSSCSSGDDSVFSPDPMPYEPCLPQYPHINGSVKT
Sequence of HEK-293 cells transfected with dox-inducible human wild type FGFR2 (P21802 22-821): as above

As to `COc1cc(-c2nnn(C3CCN(C(=O)C4(F)CN(C(=O)/C=C/CN(C)C)C4)CC3)c2C)cn2ncc(C#N)c12` [Example 164, (E)-6-(1-(1-(1-(4-(dimethylamino)but-2-enoyl)-3-fluoroazetidine-3-carbonyl)piperidin-4-yl)-5-methyl-1H-1,2,3-triazol-4-yl)-4-methoxypyrazolo [1,5-a]pyridine-3-carbonitrile], the IC50 in assay [1] came out at 1180 nM; on dephosphorylated FGFR2, 14 nM.
As to `COc1cc(-c2cnn(C3CCN(C(=O)C4(F)CN(C(=O)/C=C/CN(C)C)C4)CC3)c2C)cn2ncc(Cl)c12` [Example 170, (E)-1-(3-(4-(4-(3-chloro-4-methoxypyrazolo [1,5-a]pyridin-6-yl)-5-methyl-1H-pyrazol-1-yl)piperidine-1-carbonyl)-3-fluoroazetidin-1-yl)-4-(dimethylamino)but-2-en-1-one], the IC50 is 171 nM in assay [1] and 22 nM on dephosphorylated FGFR2.
Take `COc1cc(-c2cnn(C3CCN(C(=O)C4(OC)CN(C(=O)/C=C/CN(C)C)C4)CC3)c2C)cn2ncc(Cl)c12` [Example 171, (E)-1-(3-(4-(4-(3-chloro-4-methoxypyrazolo [1,5-a]pyridin-6-yl)-5-methyl-1H-pyrazol-1-yl)piperidine-1-carbonyl)-3-methoxyazetidin-1-yl)-4-(dimethylamino)but-2-en-1-one]: the IC50 in assay [1] is 263 nM; on dephosphorylated FGFR2 it was 41 nM.
For the compound `COc1cc(-c2cnn(C3CCN(C(=O)C4CN(C(=O)C#CCO)C4)CC3)c2)cn2ncc(C#N)c12` [Example 179, 6-(1-(1-(1-(4-hydroxybut-2-ynoyl)azetidine-3-carbonyl)piperidin-4-yl)-1H-pyrazol-4-yl)-4-methoxypyrazolo[1,5-a]pyridine-3-carbonitrile], the results for the IC50 (in assay [1]; at dephosphorylated FGFR2) were 1680 nM and 6 nM, respectively.
On to `COc1cc(-c2cnn(C3CCN(C(=O)C4CN(C(=O)/C=C/CCl)C4)CC3)c2)cn2ncc(C#N)c12` [Example 181, (E)-6-(1-(1-(1-(4-chlorobut-2-enoyl)azetidine-3-carbonyl)piperidin-4-yl)-1H-pyrazol-4-yl)-4-methoxypyrazolo[1,5-a]pyridine-3-carbonitrile], for which the IC50 turned out to be 292 nM in assay [1] and 12 nM on dephosphorylated FGFR2.

Usually IC50 stands for the concentration at which inhibition is half-maximal.
